Results taken from patent US20220016135A1, “TREATING BREAST CANCER WITH HORMONE RECEPTOR MODULATORS” (UNIVERSITY OF MIAMI, priority 2020, published 2022).

Assays:
Assay type in all cases: cell-based, human
MDA-MB-468 = assay: cell proliferation assay (cell titer blue), MDA-MB-468; conditions: MDA-MB-468 (HR1, VDR+), Calcitrol 25 nM alone; FIG. 24A-24C
SUM159 = assay: cell proliferation assay (cell titer blue), SUM159; conditions: SUM159 (HR1, VDR+), Calcitrol 25 nM alone; FIG. 24A-24C
BT20 = assay: cell proliferation assay (cell titer blue), BT20; conditions: BT20 (HR1, VDR+), Calcitrol 25 nM alone; FIG. 24A-24C
MDA-MB-453 = assay: cell proliferation assay, MDA-MB-453; conditions: ER-negative control cell line MDA-MB-453, ICI 182,780 100 nM; FIG. 24H

Row | SMILES | proliferation (MDA-MB-468) | proliferation (SUM159) | proliferation (BT20) | inhibition of cell proliferation (MDA-MB-453)
1 | C=C1/C(=C\C=C2/CCC[C@]3(C)[C@@H]([C@H](C)CCCC(C)(C)O)CC[C@@H]23)C[C@@H](O)C[C@@H]1O [Calcitrol, Calcitriol] | reduction in proliferation | reduction in proliferation | reduction in proliferation | 
2 | C[C@]12CC[C@@H]3c4ccc(O)cc4C[C@@H](CCCCCCCCC[S+]([O-])CCCC(F)(F)C(F)(F)F)[C@H]3[C@@H]1CC[C@@H]2O (stereo partly shown) [ICI 182,780] |  |  |  | no inhibition of cell proliferation
